This note sets out measurements from ChEMBL document CHEMBL2311474, “Chiral 6,7-bis(hydroxymethyl)-1H,3H-pyrrolo[1,2-c]thiazoles with anti-breast cancer properties” (Eur J Med Chem, 2013).

Molecules are shown by their SMILES.

Experiment [1] concerns MCF7. The experiment is described as follows: Cytotoxicity against human MCF7 cells after 72 hrs by MTT assay. Type of experiment: functional, cell-based. As to conditions: MCF7, 72 h.
For experiment [2], the system named is MCF7. As to the kind of experiment: Cytotoxicity against human MCF7 cells after 96 hrs by MTT assay. Type of experiment: functional, cell-based. As to conditions: MCF7, 96 h.
In experiment [3] the test system is MCF7. The experiment is described as follows: Cytotoxicity against human MCF7 cells after 24 hrs by MTT assay. The experiment is classed as functional, cell-based. The settings on record: MCF7, 24 h.
Experiment [4] deals with MCF7. As to the kind of experiment: Cytotoxicity against human MCF7 cells after 48 hrs by MTT assay. The experiment is classed as functional, cell-based. The settings on record: MCF7, 48 h.
Experiment [5] can be described thus: Cytotoxicity against human HFF1 cells after 96 hrs by MTT assay. Type of experiment: cell-based. The settings on record: HFF-1, 96 h.

Turning to `Cc1c(CO)c(CO)c2n1[C@H](c1ccccc1)SC2`, the IC50 turned out to be 0.54 µM in the experiment on MCF7 [1], 0.3 µM in the experiment on MCF7 [2], 1.75 µM in the experiment with MCF7 [3] and 0.54 µM in the experiment with MCF7 [4].

`Cc1c(COC(=O)NCc2ccccc2)cc2n1[C@@H](c1ccccc1)SC2`: the IC50 in experiment [5] stood at 48.2 µM.

`Cc1cc(CO)c2n1CSC2`: the 50% inhibitory concentration (IC50) with MCF7 [1] came out at 40.9 µM; in the experiment with MCF7 [2], 44.6 µM; in the experiment with MCF7 [3] it was 75.9 µM; in the experiment with MCF7 [4], 54.7 µM.

On to `OCc1cn2c(c1CO)CS[C@@H]2c1cccnc1`, for which the IC50 in the experiment with MCF7 [1] is 61.7 µM; in the experiment with MCF7 [2], 30.6 µM; in the experiment on MCF7 [3], > 200 µM; in the experiment with MCF7 [4] it was 128 µM.

Regarding `Cc1c(CO)cc2n1CSC2`, the IC50 was 192 µM in the experiment with MCF7 [1], 82.3 µM in the experiment on MCF7 [2], 186 µM with MCF7 [3] and 156 µM with MCF7 [4].

On to `OCc1c(CO)c(-c2ccc(F)cc2)n2c1CS[C@@H]2c1ccccc1`, for which the half-maximal inhibitory concentration (IC50) is 44.6 µM with MCF7 [1], 26.4 µM with MCF7 [2], 56.7 µM with MCF7 [3] and 46.3 µM in the experiment with MCF7 [4].

`Cc1cc(CO)c2n1[C@@H](c1ccccc1)SC2` had a concentration for half-maximal inhibition (IC50) in experiment [5] of 104 µM.

As for `Cc1c(CO)c(CO)c2n1CSC2`, the half-inhibitory concentration (IC50) in the experiment with MCF7 [1] is 22.6 µM; in the experiment on MCF7 [2], 21.5 µM; in the experiment with MCF7 [3], 37.8 µM; in the experiment on MCF7 [4], 38.1 µM.

Regarding `OCc1cn2c(c1CO)CS[C@@H]2c1ccccc1`, the values for the half-inhibitory concentration (IC50) in the experiment on MCF7 [3] and in the experiment with MCF7 [4] were 70.8 µM and 19.4 µM, respectively.

On to `OCc1c(CO)c(-c2ccccc2)n2c1CS[C@@H]2c1ccccc1`, for which the IC50 in the experiment on MCF7 [1] is 52.1 µM; in the experiment on MCF7 [2] it was 70.2 µM; in the experiment with MCF7 [3] it was 92.6 µM; in the experiment with MCF7 [4] it was 61.8 µM.

On to `COc1cc([C@H]2SCc3c(CO)c(CO)c(C)n32)cc(OC)c1OC`, for which the 50% inhibitory concentration (IC50) in the experiment on MCF7 [1] is 54.5 µM; in the experiment on MCF7 [2], 59.9 µM; with MCF7 [3], > 200 µM; in the experiment with MCF7 [4], 127 µM.

Take `Cc1c(CO)cc2n1[C@@H](c1ccccc1)SC2`: in experiment [5], half-maximal inhibition (IC50) required 154 µM.
